Results on six compounds are retold here after patent US20070265164A1, “Active Substances for Increasing Pathogenic Defense in Plants and Methods for the Detection Thereof” (Bayer Cropscience GmbH, priority 2004, published 2007).

Type in all cases: in vivo
Common to all, as to set-up: fold induction: dose or concentration left out as unconfirmed

For experiment [1], the system named is HD07M22r_s_at, Proteinase-Inhibitor (pir S71555, barley). Briefly: GEP, barley DNA chip, probe set 2.4. Particulars: for fold induction: rates of Table 1 (S7 500). As for the experimental part:
(§1) Barley plants (cv. Baronesse) were grown in compost-filled pots (diameter: 10 cm) for 10 days in a controlled-environment cabinet under defined light, humidity and temperature conditions (white light, 70% atmospheric humidity, 24° C.). At the time of spray application, the seedlings were approximately 15 cm in size. The test substances selected in this example were molecules which differ markedly in their structure and which have a well documented pronounced safener effect, and other molecules which are known from the literature to have an effect on plant stress and pathogen tolerance (Table 1). The substances were prepared as stock solutions in DMSO (dimethyl sulfoxide) at c=10 mg/ml). This was used for preparing dilutions in water supplemented with 0.2% Agrotin (comprises polyvinyl alcohol, silicones, polysaccharides and pH regulators, manufacturer: Bayer CropScience AG, Monheim, Germany), as wetter, to give the application rates shown in the table. The amount of liquid for the spray application was 800 μl per pot, corresponding to 800 l/ha. For each 800 μl of spray mixture, 16 μl of EC premix: diacetone alcohol=1:6 were additionally added as formulation auxiliaries. The substances listed in Table 1 were applied to the leaves by means of a pneumatic spray pistol. Each substance was sprayed as 2 dosages, and all experiments were carried out as replicates (2 pots per substance). Sprayings with blank formulation without active ingredient were carried out as controls. After 6 hours, the leaves were harvested, frozen in liquid nitrogen and stored at −80° C. until further use. The labeled RNA probes for the DNA chip hybridization were prepared as described in the protocols (Expression Analysis, Technical Manual) from Affymetrix (Affymetrix Inc., 3380 Central Expressway, Santa Clara, Calif., USA). First, total RNA was isolated from in each case 500 mg of the harvested leaves. In each case 10 μg of total RNA was used for the first-strand and second-strand cDNA synthesis. The cDNA was amplified with T7 polymerase and simultaneously labeled with biotin-UTP. In each case, 20 μg of this biotinylated cDNA was employed for the hybridization of the barley genome array (Gene Chip Barleyl, order No.: 511012) from Affymetrix. This DNA microarray comprises DNA sequences of 22 840 genes which are composed of a total of 400 000 EST sequences. Thereafter, the DNA microarrays were washed in the Affymetrix Fluidics Station, stained with streptavidin/phycoerythrin (Molecular Probes, P/N S-866) and scanned with the matching Agilent Laser Scanner (Agilent Gene Array Scanner). The fluorescent data obtained were analyzed with the software Microarray Suite 5 from Affymetrix. After the quality had been checked, all DNA chip analyses were stored in a database. To determine the relative expression values for genes (induction factors, repression factors), test and control chips were compared with each other, and the scoring function set by the Affymetrix software was used as the basis. The 2 biological replications of one experiment were compared in each case with 2 control chips (blank formulation), and the 4 expression values obtained for each gene were used for calculating the median. These medians are shown in the results tables as induction factors. Similarity comparisons of expression profiles from different experiments and cluster analyses were carried out using the software GeneMaths 1.5 from Applied Maths (Applied Maths, Keistraat 120, 9830 Sint-Martens-Latem, Belgium).
(§2) Gene groups from specific metabolic pathways and signal transduction chains were put together by key word search in the annotations, of the genes, which were also provided by Affymetrix, and by Blast analyses (homology comparisons) of the DNA target sequences, i.e. of the positive sequence (identified on the basis of a modified expression profile) identified on the DNA chip, using gene sequences from other organisms, preferably plant organisms, with characterized functions. […]

For experiment [2], the system named is Contig3096_s_at, Allene oxide synthase. Briefly: GEP, barley DNA chip, probe set 1.16. As to conditions: for fold induction: rates of Table 1 (S7 500). The procedure:
as §1, §2

The test system of experiment [3] is Contig2330_x_at, 12-oxophytodienoic acid reductase. Briefly: GEP, barley DNA chip, probe set 1.19. Particulars: for fold induction: rates of Table 1 (S7 500). The procedure: as §1, §2
Experiment [4] relates to Contig5023_at, Class III chitinase. Briefly: GEP, barley DNA chip, probe set 5.3. As to conditions: for fold induction: rates of Table 1 (S7 500). The procedure: as §1, §2
The test system of experiment [5] is Contig5146_at, Probable 12-oxophytodienoate reductase (EC 1.3.1.42). Kind of experiment: GEP, barley DNA chip, probe set 1.4. As to conditions: for fold induction: rates of Table 1 (S7 500). As for the experimental part: as §1, §2
For experiment [6], the system named is Contig15_a_at, GDSL-motif lipase/hydrolase-like protein. Briefly: GEP, barley DNA chip, probe set 1.9. Particulars: for fold induction: rates of Table 1 (S7 500). As for the experimental part:
as §1, §2

Experiment [7] relates to HV_Ceb0020D05r2_s_at, Allene oxide cyclase. Kind of experiment: GEP, barley DNA chip, probe set 1.6. As to conditions: Hordeum vulgare, topical, read-out: Expression value, 1.6 HV_Ceb0020 D05r2_s_at; for fold induction: barley leaves 6 h after spray application, rates of Table 1 (S7 500), median induction factor vs control. The procedure: as §1, §2
Experiment [8] relates to Contig2631_at, Lipase-like Protein (jasmonic acid biosynthesis gene). Briefly: Gene expression profiling (GEP), barley DNA chip, probe set 1.1. As to conditions: for fold induction: rates of Table 1 (S7 500). As for the experimental part:
as §1, §2

Experiment [9] deals with Contig88_x_at, Putative proteinase inhibitor. Briefly: GEP, barley DNA chip, probe set 2.3. As to conditions: for fold induction: rates of Table 1 (S7 500). The procedure: as §1, §2
The test system of experiment [10] is Contig1737_at, Probable lipoxygenase. Briefly: GEP, barley DNA chip, probe set 1.15. As to conditions: for fold induction: rates of Table 1 (S7 500). As for the experimental part:
as §1, §2

The subject of experiment [11] is Contig10030_at, Putative lipase homolog. Kind of experiment: GEP, barley DNA chip, probe set 1.13. As to conditions: for fold induction: rates of Table 1 (S7 500). As for the experimental part: as §1, §2
Experiment [12] has as its system Contig 4986_at, Allene oxide cyclase. Kind of experiment: GEP, barley DNA chip, probe set 1.5. As to conditions: for fold induction: rates of Table 1 (S7 500). The procedure:
as §1, §2

Experiment [13] has as its system Contig34_s_at, Putative proteinase inhibitor. Kind of experiment: GEP, barley DNA chip, probe set 2.2. Particulars: for fold induction: rates of Table 1 (S7 500). The procedure:
as §1, §2

[14] abbreviates: Hordeum vulgare, topical, barley leaves 6 h after spray application, median induction factor vs control, read-out: Expression value, 2.4 HD07M22r_s_at.
[15] abbreviates: Hordeum vulgare, topical, barley leaves 6 h after spray application, median induction factor vs control, read-out: Expression value, 1.16 Contig3096_s_at.
Where [16] appears, read: Hordeum vulgare, topical, barley leaves 6 h after spray application, median induction factor vs control, read-out: Expression value, 1.19 Contig2330_x_at.
Setting [17] is: Hordeum vulgare, topical, barley leaves 6 h after spray application, median induction factor vs control, read-out: Expression value, 5.3 Contig5023_at.
Where [18] appears, read: Hordeum vulgare, topical, barley leaves 6 h after spray application, median induction factor vs control, read-out: Expression value, 1.4 Contig5146_at.
The mark [19] stands for this setting: Hordeum vulgare, topical, barley leaves 6 h after spray application, median induction factor vs control, read-out: Expression value, 1.9 Contig15_a_at.
The mark [20] stands for this setting: Hordeum vulgare, barley leaves 6 h after spray application, median induction factor vs control.
Where [21] appears, read: Hordeum vulgare, topical, barley leaves 6 h after spray application, median induction factor vs control, read-out: Expression value, 2.3 Contig88_x_at.
Setting [22] is: Hordeum vulgare, topical, barley leaves 6 h after spray application, median induction factor vs control, read-out: Expression value, 1.15 Contig1737_at.
Setting [23] is: Hordeum vulgare, topical, barley leaves 6 h after spray application, median induction factor vs control, read-out: Expression value, 1.13 Contig10030_at.
Setting [24] is: Hordeum vulgare, topical, barley leaves 6 h after spray application, median induction factor vs control, read-out: Expression value, 1.5 Contig 4986_at.
[25] abbreviates: Hordeum vulgare, topical, barley leaves 6 h after spray application, median induction factor vs control, read-out: Expression value, 2.2 Contig34_s_at.
The mark [26] stands for this setting: barley leaves 6 h after spray application, rates of Table 1 (150 g a.i./ha, S7 500), median induction factor vs control.

The structures appear in SMILES notation.

`COC(=O)C1=NN(c2ccc(Cl)cc2Cl)C(C)(C(=O)OC)C1` (centres unmarked) [S1, Mefenpyr-dimethyl]: the fold induction was found to be 6.32 in experiment [1] (setting [14]); 1 in [2] (setting [15]); 4.03 in experiment [3] (setting [16]); 9.51 in experiment [4] (setting [17]); 7.73 in experiment [5] (setting [18]); 0.35 in experiment [6] (setting [19]). Moreover, the fold induction in experiment [7], in experiment [8] (setting [20]), in experiment [9] (setting [21]), in experiment [10] (setting [22]), in experiment [11] (setting [23]) and in experiment [12] (setting [24]) was 1 throughout. In [13] (setting [25]), the fold induction is 1.
On to `CCOC(=O)C(Oc1ccc(Cl)c2cccnc12)C(=O)OCC` [S5], for which the fold induction was 7.84 in experiment [1] (setting [14]); 1 in experiment [2] (setting [15]); 1 in experiment [3] (setting [16]); 2.73 in [4] (setting [17]); 5.35 in experiment [5] (setting [18]); 0.46 in experiment [6] (setting [19]). Further, the fold induction in [7], in experiment [8] (setting [20]), in experiment [9] (setting [21]), in experiment [10] (setting [22]), in [11] (setting [23]) and in experiment [12] (setting [24]) was 1 in each case. In [13] (setting [25]), the fold induction stood at 1.
Turning to `O=C(O)c1cc(Cl)cc(Cl)c1O` [S10], the fold induction in [1] (setting [14]), in [2] (setting [15]), in experiment [3] (setting [16]), in experiment [4] (setting [17]), in experiment [5] (setting [18]) and in experiment [6] (setting [19]) was 1 throughout. Also, the fold induction in experiment [7] is 1; in experiment [8] (setting [20]), 1; in experiment [9] (setting [21]), 4.41; in experiment [10] (setting [22]), 1; in [11] (setting [23]), 1; in experiment [12] (setting [24]), 1. Also, in experiment [13] (setting [25]), the fold induction stood at 2.08.
`NC(=O)c1ccc(C(F)(F)F)nc1O` [S6]: the fold induction amounted to 5.1 in [1] (setting [14]); 1 in [2] (setting [15]); 2.55 in experiment [3] (setting [16]); 1 in experiment [4] (setting [17]); 6.77 in experiment [5] (setting [18]); 1 in experiment [6] (setting [19]). Further, the fold induction in experiment [7], in experiment [8] (setting [20]), in [9] (setting [21]), in experiment [10] (setting [22]), in experiment [11] (setting [23]) and in [12] (setting [24]) was 1 throughout. The fold induction in experiment [13] (setting [25]) was found to be 1.
`O=C(O)c1cc(Cl)nc(Cl)c1` [S9]: the fold induction at 150 g/ha in experiment [1] (Hordeum vulgare, topical, 6 h, read-out: Expression value, 2.4 HD07M22r_s_at) turned out to be 1; in experiment [2] (Hordeum vulgare, topical, 6 h, read-out: Expression value, 1.16 Contig3096_s_at), 1; in experiment [3] (Hordeum vulgare, topical, 6 h, read-out: Expression value, 1.19 Contig2330_x_at), 1; in experiment [4] (Hordeum vulgare, topical, 6 h, read-out: Expression value, 5.3 Contig5023_at), 4.56; in [5] (Hordeum vulgare, topical, 6 h, read-out: Expression value, 1.4 Contig5146_at) it was 1; in [6] (Hordeum vulgare, topical, 6 h, read-out: Expression value, 1.9 Contig15_a_at), 1. Moreover, the fold induction at 150 g/ha in [7] (6 h) is 1; in experiment [8] (Hordeum vulgare, 6 h, read-out: Expression value, 1.1 Contig2631_at), 1; in [9] (Hordeum vulgare, topical, 6 h, read-out: Expression value, 2.3 Contig88_x_at), 4.59; in experiment [10] (Hordeum vulgare, topical, 6 h, read-out: Expression value, 1.15 Contig1737_at), 1; in experiment [11] (Hordeum vulgare, topical, 6 h, read-out: Expression value, 1.13 Contig10030_at) it was 1; in experiment [12] (Hordeum vulgare, topical, 6 h, read-out: Expression value, 1.5 Contig 4986_at), 1. Also, in [13] (Hordeum vulgare, topical, 6 h, read-out: Expression value, 2.2 Contig34_s_at), the fold induction at 150 g/ha was 1.
In the case of `O=C(NO)c1ccccc1O` [S7, Salicyl hydroxamate], in [1] (setting [26]), the “Expression value, 2.4 HD07M22r_s_at” value is 1.00 x times. The “Expression value, 1.16 Contig3096_s_at” value in [2] (setting [26]) stood at 2.06 x times. For the same compound, in experiment [3] (setting [26]), the “Expression value, 1.19 Contig2330_x_at” value is 1.00 x times. In experiment [4] (setting [26]), the “Expression value, 5.3 Contig5023_at” value was found to be 1.00 x times. Also, the “Expression value, 1.4 Contig5146_at” value in [5] (setting [26]) was 1.00 x times. For the same compound, the “Expression value, 1.9 Contig15_a_at” value in experiment [6] (setting [26]) turned out to be 1.00 x times. The “Expression value, 1.1 Contig2631_at” value in experiment [8] (setting [26]) was determined as 1.00 x times. In [9] (setting [26]), the “Expression value, 2.3 Contig88_x_at” value stood at 21.86 x times. For the same compound, in experiment [10] (setting [26]), the “Expression value, 1.15 Contig1737_at” value is recorded as 1.00 x times. In experiment [11] (setting [26]), the “Expression value, 1.13 Contig10030_at” value was found to be 1.00 x times. The “Expression value, 1.5 Contig 4986_at” value in [12] (setting [26]) worked out at 1.00 x times. Also, in experiment [13] (setting [26]), the “Expression value, 2.2 Contig34_s_at” value came to 4.50 x times.
